In brackets after ≈: the same amount, converted by molar mass. Activity calls are given as the source filed them. The rule behind the calls is not given here.

The MIC50 is the lowest concentration that inhibits either 50% of growth or 50% of the strains tested, depending on the study. What is called MIC90 is an inhibitory concentration at the 90% level, which refers to growth in some studies and to a panel of isolates in others.

Common to all, as to assay type: functional
The test system of experiment [1] is Staphylococcus aureus. Nature of the experiment: Antibacterial activity against Staphylococcus aureus ATCC 29213.
Experiment [2] relates to Staphylococcus aureus. Nature of the experiment: Antibacterial activity against Staphylococcus aureus ATCC 43300.
A further experiment deals with Enterococcus faecalis. Nature of the experiment: Antibacterial activity against Enterococcus faecalis ATCC 29212.
Another experiment deals with Bacillus subtilis. Put plainly: Antibacterial activity against Bacillus subtilis PY79.

In the case of `CCN1CC[C@@H](CN(Cc2ccccc2)Cc2cccc([N+](=O)[O-])c2)OC1=O`, the MIC50 against Staphylococcus aureus [1] came to 90 µg/mL (≈ 235 µM); in the experiment with Staphylococcus aureus [2] it was 22 µg/mL (≈ 57.4 µM); in the experiment with Enterococcus faecalis, 47 µg/mL (≈ 123 µM); in the experiment with Bacillus subtilis, 108 µg/mL (≈ 282 µM).
Regarding `CN1C[C@@H](CN(Cc2ccccc2)Cc2ccccc2Br)OC1=O`, the MIC50 against Staphylococcus aureus [1] came to 18 µg/mL (≈ 46.2 µM); against Staphylococcus aureus [2], 21 µg/mL (≈ 53.9 µM); with Enterococcus faecalis, 7.4 µg/mL (≈ 19 µM); in the experiment with Bacillus subtilis it was 22 µg/mL (≈ 56.5 µM).
With `CCN1CC[C@@H](CN(Cc2ccccc2)Cc2cccc(C#N)c2)OC1=O`, the MIC50 against Staphylococcus aureus [1] came to 238 µg/mL (≈ 655 µM); with Enterococcus faecalis, 45 µg/mL (≈ 124 µM); against Bacillus subtilis, 238 µg/mL (≈ 655 µM). Besides, in the experiment on Staphylococcus aureus [2], the MIC50 result is “inactive”.
With `CN1CC[C@@H](CN(Cc2ccccc2)Cc2ccc(C#N)cc2)OC1=O`, the values for the MIC50 in the experiment on Staphylococcus aureus [1], with Enterococcus faecalis and with Bacillus subtilis were 200 µg/mL (≈ 572 µM), 238 µg/mL (≈ 681 µM) and 238 µg/mL (≈ 681 µM), respectively. Moreover, the MIC50 entry with Staphylococcus aureus [2] is “inactive”.
For the compound `CN1CC[C@@H](CN(Cc2ccccc2)Cc2cccc([N+](=O)[O-])c2)OC1=O`, the MIC50 against Staphylococcus aureus [1] turned out to be 138 µg/mL (≈ 374 µM); with Enterococcus faecalis, 119 µg/mL (≈ 322 µM); with Bacillus subtilis, 238 µg/mL (≈ 644 µM). The MIC50 entry in the experiment with Staphylococcus aureus [2] is “inactive”.
Regarding `CCN1CC[C@@H](CN(Cc2ccccc2)Cc2cccnc2)OC1=O`, the MIC50 result in the experiment on Staphylococcus aureus [1], with Staphylococcus aureus [2] and in the experiment on Bacillus subtilis was “inactive” each time. Also, the MIC50 with Enterococcus faecalis was found to be 238 µg/mL (≈ 701 µM).
Take `CCN1CC[C@@H](CN(Cc2ccccc2)Cc2ccccc2[N+](=O)[O-])OC1=O`: the MIC50 with Staphylococcus aureus [1] was 72 µg/mL (≈ 188 µM); against Staphylococcus aureus [2], 100 µg/mL (≈ 261 µM); in the experiment on Enterococcus faecalis, 43 µg/mL (≈ 112 µM); against Bacillus subtilis, 100 µg/mL (≈ 261 µM).
`CN1CC[C@@H](CN(Cc2ccccc2)Cc2ccc(F)cc2F)OC1=O`: the MIC50 stood at 50 µg/mL (≈ 139 µM) in the experiment on Staphylococcus aureus [1], 72 µg/mL (≈ 200 µM) against Staphylococcus aureus [2], 59.5 µg/mL (≈ 165 µM) with Enterococcus faecalis and 55 µg/mL (≈ 153 µM) against Bacillus subtilis.
With `CN1CC[C@@H](CN(Cc2ccccc2)Cc2ccccc2[N+](=O)[O-])OC1=O`, the MIC50 in the experiment on Staphylococcus aureus [1] amounted to 179 µg/mL (≈ 485 µM); against Enterococcus faecalis, 238 µg/mL (≈ 644 µM); with Bacillus subtilis, 238 µg/mL (≈ 644 µM). Besides, the MIC50 result with Staphylococcus aureus [2] is “inactive”.
Take `CCN1CC[C@@H](CN(Cc2ccccc2)Cc2ccc([N+](=O)[O-])cc2)OC1=O`: the MIC50 result in the experiment on Staphylococcus aureus [1], with Staphylococcus aureus [2] and in the experiment on Bacillus subtilis was “inactive” throughout. Also, the MIC50 against Enterococcus faecalis amounted to 45 µg/mL (≈ 117 µM).
Take `CCN1CC[C@@H](CN(Cc2ccccc2)Cc2ccccc2C)OC1=O`: the MIC50 is 22 µg/mL (≈ 62.4 µM) in the experiment on Staphylococcus aureus [1], 22.5 µg/mL (≈ 63.8 µM) against Staphylococcus aureus [2], 8.1 µg/mL (≈ 23 µM) in the experiment on Enterococcus faecalis and 26 µg/mL (≈ 73.8 µM) against Bacillus subtilis. Moreover, the MIC90 was 29.8 µg/mL (≈ 84.5 µM) against Staphylococcus aureus [1] and 59.5 µg/mL (≈ 169 µM) in the experiment with Bacillus subtilis.
Take `CCN1CC[C@@H](CN(Cc2ccccc2)Cc2ccc(F)cc2F)OC1=O`: the MIC50 against Staphylococcus aureus [1] is 45 µg/mL (≈ 120 µM); in the experiment with Staphylococcus aureus [2] it was 50.5 µg/mL (≈ 135 µM); against Enterococcus faecalis it was 59.5 µg/mL (≈ 159 µM); with Bacillus subtilis it was 38 µg/mL (≈ 101 µM).
With `CN1CC[C@@H](CN(Cc2ccccc2)Cc2ccc3ccccc3c2)OC1=O`, the MIC50 against Staphylococcus aureus [1] was 11.5 µg/mL (≈ 30.7 µM); against Staphylococcus aureus [2] it was 13 µg/mL (≈ 34.7 µM); in the experiment on Enterococcus faecalis, 14.9 µg/mL (≈ 39.8 µM); against Bacillus subtilis it was 12 µg/mL (≈ 32 µM). The MIC90 in the experiment with Staphylococcus aureus [1] was determined as 14.9 µg/mL (≈ 39.8 µM); against Bacillus subtilis it was 30 µg/mL (≈ 80.1 µM).
Take `CCN1CC[C@@H](CN(Cc2ccccc2)Cc2ccc(Cl)c(Cl)c2)OC1=O`: the MIC50 was 5.6 µg/mL (≈ 13.7 µM) in the experiment on Staphylococcus aureus [1], 6.56 µg/mL (≈ 16.1 µM) against Staphylococcus aureus [2] and 5 µg/mL (≈ 12.3 µM) with Bacillus subtilis. Besides, the MIC90 was 9.85 µg/mL (≈ 24.2 µM) with Staphylococcus aureus [1] and 7.44 µg/mL (≈ 18.3 µM) in the experiment with Bacillus subtilis. Besides, the MIC50 result with Enterococcus faecalis was “inactive”.
As to `CN1C[C@@H](CN(Cc2ccccc2)Cc2ccc(F)cc2F)OC1=O`, the results for the MIC50 in the experiment on Staphylococcus aureus [1], in the experiment on Staphylococcus aureus [2] and in the experiment with Bacillus subtilis were 85 µg/mL (≈ 245 µM), 119 µg/mL (≈ 344 µM) and 90 µg/mL (≈ 260 µM), respectively. Also, the MIC50 entry in the experiment with Enterococcus faecalis is “inactive”.
`CCN1CC[C@@H](CN(Cc2ccccc2)Cc2cc(F)cc(F)c2)OC1=O`: the MIC50 came out at 40 µg/mL (≈ 107 µM) against Staphylococcus aureus [1], 45 µg/mL (≈ 120 µM) against Staphylococcus aureus [2], 37 µg/mL (≈ 98.8 µM) in the experiment with Enterococcus faecalis and 43 µg/mL (≈ 115 µM) against Bacillus subtilis.
For the compound `CCN1CC[C@@H](CN(Cc2ccccc2)Cc2cccc3ccccc23)OC1=O`, the MIC50 stood at 10 µg/mL (≈ 25.7 µM) against Staphylococcus aureus [1], 35 µg/mL (≈ 90.1 µM) against Staphylococcus aureus [2], 7.4 µg/mL (≈ 19 µM) with Enterococcus faecalis and 7.6 µg/mL (≈ 19.6 µM) against Bacillus subtilis. Moreover, the MIC90 with Staphylococcus aureus [1] was found to be 14.9 µg/mL (≈ 38.4 µM); in the experiment on Bacillus subtilis, 30 µg/mL (≈ 77.2 µM).
`CN1CC[C@@H](CN(Cc2ccccc2)Cc2ccccc2C#N)OC1=O`: the MIC50 in the experiment on Staphylococcus aureus [1] was 166 µg/mL (≈ 475 µM); with Staphylococcus aureus [2], 180 µg/mL (≈ 515 µM); in the experiment on Enterococcus faecalis, 59.5 µg/mL (≈ 170 µM); against Bacillus subtilis, 180 µg/mL (≈ 515 µM).
For the compound `CN1C[C@@H](CN(Cc2ccccc2)Cc2ccc(Br)cc2)OC1=O`, the MIC50 with Staphylococcus aureus [1] was 20 µg/mL (≈ 51.4 µM); in the experiment with Staphylococcus aureus [2] it was 59.5 µg/mL (≈ 153 µM); with Bacillus subtilis it was 22 µg/mL (≈ 56.5 µM). Besides, the MIC50 entry with Enterococcus faecalis is “inactive”.
As to `CCN1CC[C@@H](CN(Cc2ccccc2)Cc2ccc(C#N)cc2)OC1=O`, the MIC50 was found to be 180 µg/mL (≈ 495 µM) in the experiment with Staphylococcus aureus [1], 59.5 µg/mL (≈ 164 µM) in the experiment with Staphylococcus aureus [2], 12 µg/mL (≈ 33 µM) in the experiment with Enterococcus faecalis and 10 µg/mL (≈ 27.5 µM) in the experiment on Bacillus subtilis.
In the case of `CN1C[C@@H](CN(Cc2ccccc2)Cc2ccc(F)cc2)OC1=O`, the MIC50 result in the experiment on Staphylococcus aureus [1], with Staphylococcus aureus [2], with Enterococcus faecalis and with Bacillus subtilis was “inactive” throughout.
As to `CCN1CC[C@@H](CN(Cc2ccccc2)Cc2ccc(F)cc2)OC1=O`, the MIC50 against Staphylococcus aureus [1] is 64 µg/mL (≈ 180 µM); in the experiment with Staphylococcus aureus [2], 47 µg/mL (≈ 132 µM); against Enterococcus faecalis, 35 µg/mL (≈ 98.2 µM); against Bacillus subtilis, 42.5 µg/mL (≈ 119 µM).
For `CCN1CC[C@@H](CN(Cc2ccccc2)Cc2ccccn2)OC1=O` the same measures were “inactive”, “inactive”, “inactive” and “inactive”.
For `CCN1CC[C@@H](CN(Cc2ccccc2)Cc2cccc(OC)c2)OC1=O` the same measures were 90 µg/mL (≈ 244 µM), 90 µg/mL (≈ 244 µM), 80.5 µg/mL (≈ 218 µM) and 95 µg/mL (≈ 258 µM).
Consider `O=C(N[C@H](CO)[C@H](O)c1ccc([N+](=O)[O-])cc1)C(Cl)Cl` [CHLORAMPHENICOL], for which the MIC90 against Staphylococcus aureus [1] came out at 7.44 µg/mL (≈ 23 µM); against Staphylococcus aureus [2], 7.44 µg/mL (≈ 23 µM); with Enterococcus faecalis it was 4 µg/mL (≈ 12.4 µM); with Bacillus subtilis it was 2 µg/mL (≈ 6.19 µM).
Regarding `CN1CC[C@@H](CN(Cc2ccccc2)Cc2cccc(C#N)c2)OC1=O`, the MIC50 is 180 µg/mL (≈ 515 µM) against Staphylococcus aureus [1], 238 µg/mL (≈ 681 µM) in the experiment with Staphylococcus aureus [2], 7.4 µg/mL (≈ 21.2 µM) with Enterococcus faecalis and 180 µg/mL (≈ 515 µM) against Bacillus subtilis.
For the compound `CCN1CC[C@@H](CN(Cc2ccccc2)Cc2ccccc2C#N)OC1=O`, the MIC50 in the experiment on Staphylococcus aureus [1] worked out at 130 µg/mL (≈ 358 µM); in the experiment with Staphylococcus aureus [2] it was 180 µg/mL (≈ 495 µM); with Enterococcus faecalis, 33 µg/mL (≈ 90.8 µM); against Bacillus subtilis it was 160 µg/mL (≈ 440 µM).
For the compound `CN1CC[C@@H](CN(Cc2ccccc2)Cc2ccc(F)cc2)OC1=O`, the MIC50 against Staphylococcus aureus [1] turned out to be 87.1 µg/mL (≈ 254 µM); in the experiment with Staphylococcus aureus [2], 119 µg/mL (≈ 348 µM); in the experiment with Enterococcus faecalis, 120 µg/mL (≈ 350 µM); in the experiment on Bacillus subtilis, 95 µg/mL (≈ 277 µM).
As to `CN1CC[C@@H](CN(Cc2ccccc2)Cc2ccc([N+](=O)[O-])cc2)OC1=O`, the MIC50 with Staphylococcus aureus [1] is 81 µg/mL (≈ 219 µM); against Enterococcus faecalis, 119 µg/mL (≈ 322 µM); against Bacillus subtilis, 98 µg/mL (≈ 265 µM). In addition, the MIC50 entry in the experiment with Staphylococcus aureus [2] is “inactive”.
Regarding `CCN1CC[C@@H](CN(Cc2ccccc2)Cc2ccc3ccccc3c2)OC1=O`, the MIC50 was found to be 15 µg/mL (≈ 38.6 µM) against Staphylococcus aureus [1], 13 µg/mL (≈ 33.5 µM) against Enterococcus faecalis and 29 µg/mL (≈ 74.6 µM) with Bacillus subtilis. The MIC50 result with Staphylococcus aureus [2] is “inactive”.
As to `CCN1CC[C@@H](CN(Cc2ccccc2)Cc2c(F)cccc2F)OC1=O`, the MIC50 in the experiment with Staphylococcus aureus [1] is 47 µg/mL (≈ 126 µM); in the experiment on Staphylococcus aureus [2], 70 µg/mL (≈ 187 µM); in the experiment on Enterococcus faecalis it was 59.5 µg/mL (≈ 159 µM); in the experiment on Bacillus subtilis, 77 µg/mL (≈ 206 µM).
As to `CN1C[C@@H](CN(Cc2ccccc2)Cc2ccc(F)c(F)c2)OC1=O`, the MIC50 came out at 119 µg/mL (≈ 344 µM) against Staphylococcus aureus [1] and 80 µg/mL (≈ 231 µM) with Bacillus subtilis. The MIC50 result in the experiment with Staphylococcus aureus [2] and in the experiment on Enterococcus faecalis was “inactive” each time.
